Patent US6500431B1, “Inhibitors of angiogenesis and tumor growth” (University of Southern California, priority 1998, dated 2002)
No end group written: not given here.

What was measured:
Type in all cases: cell-based
KS Y-1 cells [1] = test: KS Y-1 cell proliferation assay (MTT); details: concentration not printed, 5 days, MTT
Experimental: (§1) To determine if Saposin B polypeptides had anti-angiogenic activity, a series of overlapping polypeptides were synthesized and tested in the KS Y-1 cell proliferation assay. The overlapping polypeptides are SEQ ID NOS:13 though 42. Cell Proliferation assays in either KS cells or fibroblast. Cells were plated in 48 well plates at equal numbers in appropriate culture medium. Cells were treated with the test compounds at various concentrations on day one, and on day 3. MTT was done on day 5. KS cells were used to represent the activated endothelial cells, while fibroblast cells represent the control cells. The results are remarkable for the lack of toxicity to the fibroblast relative to the activated endothelial cells/KS cells.

T1 cells = test: Fibroblast proliferation assay (MTT); details: 5000 T1 cells/well, 7 days
Experimental: as §1, with “MTT was done on day 5.” left out

KS Y-1 cells [2] = test: KS cell migration assay, fibronectin-coated transwell; details: 50,000 KS Y-1 cells/well, 25 ng/mL bFGF, overnight
Experimental: (§2) The assays were done in double chamber wells separated by […] membrane. Chemotaxis was induced by bFGF (25 ng/mL) in the lower chamber. Endothelial cells or KS cells (5×10^4/mL) were placed in the upper chamber in the presence and absence of test polypeptides. Taxol at 10 ng/mL was used as a known inhibitor of migration. Cell migration across the membrane was quantitated after an overnight incubation.
(§3) Angiogenesis is mediated by complex biochemical processes including degradation of the basement membrane under existing blood vessel endothelial cells, followed by proliferation and migration of endothelial cells, followed by formation of capillary loops, and recruitment of vascular smooth muscle cells to encase the newly formed vessels and provide stability. KS and endothelial cell migration in the presence of Saposin B was studied in transwell culture plates with 8 μm pore membranes (Costar, Cambridge, Mass.).
Briefly, wells were coated with fibronectin (25 μg/mL) overnight, and endothelial cells or KS cells were plated in the upper chamber with 100 μL of DMEM/0.4% FCS. 500 μL of DMEM/0.4% FCS was added to the lower chamber and incubated at 37° C. for one hour. The test polypeptides, at various concentrations, were added to the upper chamber, and chemotactic agents (VEGF or bFGF at 20 ng/mL) were added to the lower cell-culture chambers. The plates were incubated for 5 hr at 37° C. and the cells crossing the fibronectin-coated membrane were counted after wiping the cells off the membrane in the upper chamber with a cotton swab.
The cells that traversed the membrane were fixed with Diff-Quik stain according to the manufacturer's instruction (Dade Diagnostics Inc., Aguada, PR). The cells were counted under a microscope at 320× in four randomly selected fields. The experiments were done in duplicate and repeated at least three times.

[3] = Activity of truncated recombinant Saposin B (FIG. 1C); details: cell type not given
Source text: FIG. 1C: Activity of truncated recombinant Saposin B. Saposin (Sap) B 1-69 (consisting of the first 69 amino acids), Sap B 1-42 (consisting of the first 42 amino acids), Sap B 11-81 (consisting of 11-81 amino acids and thus lacking the first 10 amino acids).

endothelial cells = test: Endothelial cell migration assay, fibronectin-coated transwell; details: chemotaxis induced by VEGF or bFGF
Experimental: as §2
as §3, with “KS and endothelial cell migration in the presence of Saposin B was studied in transwell culture plates with 8 μm pore membranes (Costar, Cambridge, Mass.).” left out
Briefly, wells were coated with fibronectin (25 μg/mL) overnight, and endothelial cells or KS cells were plated in the upper chamber with 100 μL of DMEM/0.4% FCS. […] The plates were incubated for 5 hr at 37° C. and the cells crossing the fibronectin-coated membrane were counted after wiping the cells off the membrane in the upper chamber with a cotton swab.
The cells that traversed the membrane were fixed with Diff-Quik stain according to the manufacturer's instruction (Dade Diagnostics Inc., Aguada, PR). The cells were counted under a microscope at 320× in four randomly selected fields. […]

KS cell lines = test: Activity of recombinant Prosaposin chains on growth of KS cell lines; details: Saposin C: highest concentration tested 50 μg/mL
Source text: In order to determine whether recombinant Saposin B has anti-angiogenic activity, the coding region of each of the Prosaposin chains was amplified from fibroblast cell lines and cloned into both bacterial (pGEX-KG) and eukaryotic (pcDNA 3.1His A) expression vectors.
The PCR products were digested with the respective restriction enzymes and the restriction products were inserted into the pGEX-KG vector for bacterial expression. pGEX-KG vector comprises a glutathione S transferase (GST)-tag at the […] of the insertion site so that a GST-fusion protein is expressed. The GST-tag is used to aid in purification of the recombinant protein. After elution from a glutathione-Sepharose 4B column, the GST-tagged proteins were incubated with thrombin (4 μg/ml) for 4 hr at room temperature (22-25° C.) in 50 mM Tris, pH 8.3, 3 mM CaCl2, 150 mM NaCl to cleave GST from the fusion protein. Free GST was removed from the preparation by passing the digested fusion protein through the glutathione-Sepharose 4B column.
(§4) By SDS-PAGE, the bacterial product was smaller than the eukaryotic protein. Because prokaryotically expressed proteins are not glycosylated, the difference in molecular weights probably represents the presence of carbohydrate in the eukaryotic protein. Recombinant proteins were then tested in KS, endothelial and control cell lines. Activity was found only in KS cell lines and endothelial cells.

[4] = tested on: endothelial cells (HUVEC); test: Growth inhibition of endothelial cells; details: Saposin C: highest concentration tested 50 μg/mL
Experimental: FIG. 1D: Activity of n-terminus decapeptide (DVCQDCIQMV; SEQ ID NO 21).
FIG. 1E: Activity of N-terminus pentapeptide (DVCQC; SEQ ID NO: 28).
as §4

Molecule: GDVCQDCIQMV [SEQ ID NO:19]
- Cell Proliferation Activity (% of control), KSY-1 (KS Y-1 cells [1]; first of two KSY-1 value columns): 28 % of control
- Cell Proliferation Activity (% of control), KSY-1 (KS Y-1 cells [1]; second of two KSY-1 value columns): 8 % of control
- Fibroblast Proliferation, % of Control (T1 cells; 1 μg/mL): 91.3 % of Control
- Fibroblast Proliferation, % of Control (T1 cells; 10 μg/mL): 91.3 % of Control
- Fibroblast Proliferation, % of Control (T1 cells; 50 μg/mL): 82.6 % of Control
- % Cells Migrating Through Membrane (of Control) (KS Y-1 cells [2]; 1 μg/mL): 78.23 % (of Control)
- % Cells Migrating Through Membrane (of Control) (KS Y-1 cells [2]; 50 μg/mL): 20.98 % (of Control)
- % Cells Migrating Through Membrane (of Control) (KS Y-1 cells [2]): 40.32 % (of Control)

Molecule: Sap B 1-42: truncated recombinant Saposin B consisting of the first 42 amino acids (GDVCQDCIQMVTDIQTAVRTNSTFVQALVEHVKEECDRLGPG; ends and bridges not checked; cysteine pairing not given here; UniProt P07602 195-236, looked up, fragment)
- growth inhibition by truncated recombinant Saposin B [3]: dose dependent growth inhibition

Molecule: CC(=O)O[C@H]1C(=O)[C@@]2(C)[C@H]([C@H](OC(=O)c3ccccc3)[C@]3(O)C[C@H](OC(=O)[C@H](O)[C@@H](NC(=O)c4ccccc4)c4ccccc4)C(C)=C1C3(C)C)[C@]1(OC(C)=O)CO[C@@H]1C[C@@H]2O [paclitaxel, reference compound]
- inhibition of endothelial cell migration (endothelial cells): did not completely inhibit

B1: Prosaposin: 70 kD glycoprotein, precursor of Saposin A, B, C and D; naturally occurring full-length (protein, listed as Homo sapiens)
chain: MYALFLLASLLGAALAGPVLGLKECTRGSAVWCQNVKTASDCGAVKHCLQTVWNKPTVKSLPCDICKDVVTAAGDMLKDNATEEEILVYLEKTCDWLPKPNMSASCKEIVDSYLPVILDIIKGEMSRPGEVCSALNLCESLQKHLAELNHQKQLESNKIPELDMTEVVAPFMANIPLLLYPQDGPRSKPQPKDNGDVCQDCIQMVTDIQTAVRTNSTFVQALVEHVKEECDRLGPGMADICKNYISQYSEIAIQMMMHMQPKEICALVGFCDEVKEMPMQTLVPAKVASKNVIPALELVEPIKKHEVPAKSDVYCEVCEFLVKEVTKLIDNNKTEKEILDAFDKMCSKLPKSLSEECQEVVDTYGSSILSILLEEVSPELVCSMLHLCSGTRLPALTVHVTQPKDGGFCEVCKKLVGYLDRNLEKNSTKQEILAALEKGCSFLPDPYQKQCDQFVAEYEPVLIEILVEVMDPSFVCLKIGACPSAHKPLLGTEKCIWGPSYWCQNTETAAQCNAVEHCKRHVWN
modifications: prosaposin
notes: 70 kD glycoprotein, precursor of Saposin A, B, C and D; naturally occurring full-length
- activity against KS cell lines (KS cell lines): no activity
- activity against endothelial cells [4]: no activity
